“And” between values parts separate entries of the source, which are not always exact repeats. Equal entries are not always repeated.

One series relates to TbFolD. The experiment in a line: FolD dehydrogenase enzyme inhibition assay. The series is classed as biochemical, Trypanosoma brucei. The note with it: for FolD inhibition IC50 / FolD inhibition Ki: recombinant TbFolD, dehydrogenase activity; for FolD inhibition IC50: 35 μM mTHF, 1 mM NADP+, 27 °C, pH 7.3; for FolD inhibition Ki: data fitted to a competitive model; for increase of the inhibitory potency compared to that of compound 2: TbFolD, from Ki. How it is done: The dehydrogenase activity of FolD was measured spectrophotometrically, using a Beckman DU-640 spectrophotometer, following the formation of 5,10-CH=THF from 5,10-CH2-THF. 5,10-CH2-THF dehydrogenase assays were carried out in a 0.5 mL volume at 27 °C and contained 25 mM MOPS, pH 7.3, 30 mM 2-mercaptoethanol, 35 μM mTHF, and 1 mM NADP^+. The Km values of substrate and cofactor having been previously elucidated as approximately 35 and 70 μM. The reaction was initiated by the addition of NADP^+ and incubated for 5 min then stopped by the addition of an equal volume of 1 M HCl and the 5,10-CH=THF produced quantified at 350 nm, using an extinction coefficient of 24.9 mM^–1 cm^–1. The enzyme activity was expressed as μ moles 5,10-CH=THF produced per minute. Enzyme inhibition was measured using the dehydrogenase assay, with stocks of compounds dissolved in DMSO (10 mM). The concentration of compound in the first test was 0–50–100 μM. Data from inhibition assays were fitted to a competitive model by linear regression using Origin (OriginLab Corporation). […]
with 50 mM bicine, 250 mM NaCl, 0.5 mM DTT, 10 % glycerol pH 8.0. The typical yield of protein was approximately 7 mg/L of cell culture. The addition of 10% glycerol in all buffers was required to prevent loss of activity when the samples were flashyfrozen.
The dehydrogenase activity of FolD was measured spectrophotometrically, using a Beckman DUy 640 spectrophotometer, following either the formation of 5,10yCH=THF from 5,10yCH2yTHF (DH activity). 5,10yCH2yTHF dehydrogenase assays were carried out in a 0.5 mL volume at 27 °C and contained 25 mM MOPS, pH 7.3, 30 mM 2ymercaptoethanol 35 µM mTHF, 1 mM NADP+. The reaction was initiated by addition of NADP+ and incubated for 5 minutes then stopped by the addition of an equal volume of 1 M HCl and the 5,10yCH=THF produced quantified at 350 nm, using a extinction coefficient of 24.9 mM−1 cm−1. DH activity was expressed as µ moles 5,10y CH=THF produced per minute. Enzyme inhibition was measured using the dehydrogenase assay, with stocks of compounds dissolved in DMSO (10 mM). The concentration of compound in the first test was 0y50y100 µM. Data from inhibition assays were fitted to competitive model by linear […]
The bloodstreamyform T. brucei brucei strain 427 was grown in HMIy9 medium – 17.66 mg/mL IMDM (Gibco), 3.020 mg/mL sodium bicarbonate (SigmayAldrich), 0.136 mg/mL hypoxanthine (SigmayAldrich), 0.039 mg/mL thymidine (SigmayAldrich) and 0.028 mg/mL bathocuproine sulfonic acid (SigmayAldrich) y supplemented with 10% heatyinactivated fetal bovine serum (FBS) (BioWhittaker), 1.5 mM Lycysteine hydrochloride monohydrate (Merck), 0.2 mM βy mercaptoethanol (SigmayAldrich), 100 U/mL penicillin and 100 U/mL streptomycin (BioWhittaker) at 37 °C under a humidified 5% CO2 atmosphere. Cultures were grown in T25 or T75 vented cap culture flasks (Sarstedt) and subycultured every 2y3 days by 100 to 1000yfold dilution, respectively.
Parasites were counted directly using a Neubauer chamber (Marienfeld) and diluted appropriately in […]
In vitro growth inhibition assays

Series [1] is described as follows: Solubility in organic solvents (crystallization trials). The series is classed as physicochemical. The settings on record: room temperature, with the exception of DMSO. From the text:
We therefore tried to grow crystals from DMSO (in different conditions) and from mixtures of DMSO/CH3CN. Eventually, crystallization by slow evaporation (16 days) of a solution of 3 in reagent-grade DMSO (Sigma-Aldrich) at room temperature produced small plates suitable for the determination of the molecular connectivity. After testing several samples, a specimen (0.25 × 0.20 × 0.05 mm^3) grown at the liquor/air interface was selected for the crystallographic analysis. The specimen manifested a significant pleochroism (colorless to violet) under polarized light. It was mounted on the top of a glass capillary fiber in dense perfluorinated oil. The X-ray data collection was performed at room temperature on a 3-circle Bruker SMART APEX goniometer equipped with a CCD APEX-II detector, using graphite-monochromated Mo Kα radiation (λ = 0.71073 Å). A total of 26180 reflections (8144 unique) were recorded up to (sin ϑ/λ)MAX = 0.5017 Å^–1. A high exposure time (120 s/frame) was employed due to the small dimensions of the sample and its very low scattering power.

The target of the next series is human FolD. Details: method as in PMID 22108435, PMID 23050773. The note with it: competitive inhibitor; cited from earlier work.
Series [2] has as its target Pseudomonas aeruginosa FolD. On the set-up: method as in PMID 22108435, PMID 23050773. The settings on record: competitive inhibitor; cited from earlier work.
The target of a further series is L. major FolD. On the set-up: method as in PMID 22108435, PMID 23050773. The settings on record: competitive inhibitor; cited from earlier work.
Series [3] has as its system THP1 differentiated macrophages. The experiment in a line: Cytotoxicity, colorimetric MTT assay. The series is classed as cell-based. The settings on record: human THP1 differentiated macrophages, 72 h, read-out: THP1 in vitro growth inhibition IC50. How it is done:
The cytotoxicity of the compounds under study was assessed by a colorimetric MTT assay.[26],[27] THP1 differentiated macrophages were seeded at a density of 10^5 cells/well in 96-well plates and allowed to adhere overnight. Cells were incubated with the compound concentration range for 72 h at 37 °C. At the end of the incubation period, 200 μL of 0.5 mg/mL MTT reagent (thiazolyl blue tetrazolium bromide, Sigma) solution was added to each well. The plates were further incubated for 4 h at 37 °C in the dark. The culture medium was subsequently discarded, and 200 μL of isopropanol was added to dissolve the dark-blue formazan crystals. Cell viability was quantified spectrophotometrically by measuring the absorbance of the formazan product at wavelength 570 nm and the background at 660 nm with a microplate reader (Synergy 2, Biotek, USA). The data are expressed as the percentages of viable cells compared to the survival of a control group (untreated cells). […]
additional 4 h and then the fluorescence read in a microplate reader (Sinergy 2, BioTek) using an […]
calculated by linear regression.
The cytotoxicity of the compounds under study was assessed by a colorimetric MTT assay. […]
added to dissolve the darkyblue formazan crystals. Cell viability was quantified
spectrophotometrically by measuring the absorbance of the formazan product at the wavelength of […]
(In general: Tetrazolium dyes change colour on reduction, which living cells bring about.)

Series [4] has as its target Trypanosoma brucei N5,N10-methylenetetrahydrofolate dehydrogenase/cyclohydrolase (FolD) (Trypanosoma brucei (Lister 927 strain)). Briefly: SEC; size exclusion chromatography (gel filtration) of recombinant TbFolD in solution; conditions not given in the main text. Background: Size exclusion chromatography separates by hydrodynamic size, large species first.

Turning to `Nc1nc(N)c(NC(=O)Nc2ccc(C(=O)N[C@@H](CCC(=O)O)C(=O)O)cc2)c(=O)[nH]1` [Compound 2, (S)-2-(4-(3-(2,4-Diamino-6-oxo-1,6-dihydropyrimidin-5-yl)ureido)benzamido)pentanedioic Acid], in the series with TbFolD, the “FolD inhibition IC50” value is 2200 nM and 2200 ± 500 nM; the “FolD inhibition Ki” value is 1100 nM and 1100 ± 800 nM.
In the case of `CCOC(=O)c1ccc(NC(=O)Nc2c(N)nc(N)[nH]c2=O)cc1` [Compound 3, Ethyl 4-(3-(2,4-diamino-6-oxo-1,6-dihydropyrimidin-5-yl)ureido)benzoate], the “solubility in most organic solvents” value in series [1] is recorded as “poorly soluble”.
`C[C@H](NC(=O)c1ccc(NC(=O)Nc2c(N)nc(N)[nH]c2=O)cc1)C(=O)O` [Compound 17, (S)-2-(4-(3-(2,4-Diamino-6-hydroxypyrimidin-5-yl)ureido)benzamido)propanoic Acid]: in the series on TbFolD, the “FolD inhibition IC50” value stood at 6300 ± 800 nM and the “FolD inhibition Ki” value is 3200 ± 300 nM.
For `Nc1nc(N)c(NC(=O)Nc2ccc(C(=O)N[C@@H](Cc3ccccc3)C(=O)O)cc2)c(=O)[nH]1` [Compound 18, (S)-2-(4-(3-(2,4-Diamino-6-hydroxypyrimidin-5-yl)ureido)benzamido)-3-phenylpropanoic Acid], in the series with TbFolD, the “increase of the inhibitory potency compared to that of compound 2” value came out at 2 fold; the “FolD inhibition IC50” value turned out to be 1100 ± 250 nM; the “FolD inhibition Ki” value was 540 nM and 540 ± 80 nM.
Consider `Nc1nc(N)c(NC(=O)Nc2ccc(C(=O)N[C@@H](Cc3ccc(O)cc3)C(=O)O)cc2)c(=O)[nH]1` [Compound 19, (S)-2-(4-(3-(2,4-Diamino-6-hydroxypyrimidin-5-yl)ureido)benzamido)-3-(4-hydroxyphenyl)propanoic Acid], for which, in the series with TbFolD, the “FolD inhibition IC50” value amounted to 9300 ± 900 nM and the “FolD inhibition Ki” value was found to be 7300 ± 700 nM.
For `Nc1nc(N)c(NC(=O)Nc2ccc(C(=O)NCCCC(=O)O)cc2)c(=O)[nH]1` [Compound 20, 4-(4-(3-(2,4-Diamino-6-hydroxypyrimidin-5-yl)ureido)benzamido)butanoic Acid], in that order: 213000 ± 18000 nM and 168000 ± 8500 nM.
On to `Nc1nc2c(c(=O)[nH]1)N1C(=O)N(c3ccc(C(=O)NC(CCC(=O)O)C(=O)O)cc3)CC1CN2` (stereo not shown) [Compound 21, reference compound], for which, in the series on TbFolD, the “FolD inhibition IC50” value amounted to 20000 ± 1200 nM; the “FolD inhibition Ki” value is 8500 nM and 8500 ± 500 nM. Also, the “Ki human FolD” value on human FolD is recorded as 29 nM. Besides, the “Ki Pseudomonas aeruginosa FolD” value in series [2] is listed as 30 nM. In addition, the “Ki L. major FolD” value at L. major FolD is given as 105 nM.
For the compound “(S)-2-(4-(3-(2,4-diamino-6-hydroxypyrimidin-5-yl)ureido)benzamido)hexanedioic Acid [Compound 16]”, in the series on TbFolD, the “increase of the inhibitory potency compared to that of compound 2” value is 2 fold; the “FolD inhibition IC50” value is 1000 ± 300 nM; the “FolD inhibition Ki” value is 480 nM and 480 ± 700 nM. For the same compound, in series [3], the IC50 was 90000 ± 16000 nM.
Take “Trypanosoma brucei N5,N10-methylenetetrahydrofolate dehydrogenase/cyclohydrolase (FolD) (enzyme)”: the stoichiometry N in series [4] came to 2.

In general, IC50 refers to the concentration that inhibits the measured activity by half. In general, stoichiometry N refers to the number of molecules, sites or subunits per partner or assembly.
